Experimental data reported in US20090124672A1 (priority 2007, published 2009).
Where “and” joins values, the source holds several entries; their conditions need not be identical. Equal values may be shown once.

Tests used:
[1] = molecular target: T1, hALDH2 (recombinant human mitochondria ALDH) (Homo sapiens, UniProt P05091); assay: ALDH2 inhibition assay (NADH formation, formaldehyde substrate); type: biochemical; conditions: for inhibition at 1 µM: read-out: hALDH2 inhibition (IC50 hALDH2 column)
T1 sequence (P05091 18-517): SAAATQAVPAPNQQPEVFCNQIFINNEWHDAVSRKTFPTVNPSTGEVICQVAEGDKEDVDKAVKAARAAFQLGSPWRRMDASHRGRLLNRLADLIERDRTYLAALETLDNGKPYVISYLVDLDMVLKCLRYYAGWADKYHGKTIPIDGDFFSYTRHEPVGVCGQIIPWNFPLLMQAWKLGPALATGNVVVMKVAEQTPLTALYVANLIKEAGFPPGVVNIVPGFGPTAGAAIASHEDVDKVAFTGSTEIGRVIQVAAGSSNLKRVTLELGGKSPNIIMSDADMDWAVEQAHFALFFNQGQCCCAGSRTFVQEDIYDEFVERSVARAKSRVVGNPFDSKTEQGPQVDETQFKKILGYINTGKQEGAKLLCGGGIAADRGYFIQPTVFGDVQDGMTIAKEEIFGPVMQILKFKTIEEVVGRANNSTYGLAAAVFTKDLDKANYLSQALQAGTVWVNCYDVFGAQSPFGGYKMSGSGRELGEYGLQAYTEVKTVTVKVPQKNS
Experimental: ALDH2 inhibition assays were performed in sodium phosphate buffer (50 mM, pH 7.4) containing 1.2 mM NAD^+ (Sigma N7004), 1 nM hALDH2 (recombinant human mitochondria ALDH), various concentrations of test compounds (from 0.03 nM to 1000 nM), and 0.15 mM freshly prepared formaldehyde solution (Ladd Research 20295). Reactions were initiated by the addition of formaldehyde and rates were recorded by monitoring NADH formation in a temperature controlled (25° C.) FluoroMax-2 Fluorimeter with excitation and emission wavelengths set at 340 and 460 nm, respectively. […] Normally, IC50 values were determined by fitting concentration-inhibition data to sigmoidal dose-response curves with two-floating parameters: IC50 and Hill coefficient. When tight binding situation was suspected, apparent Ki values were estimated by fitting dose-response data to Morrison's equation [Methods in Enzymology 63, 437-467, 1979].

hMAO-B = molecular target: T2, hMAO-B (Homo sapiens, UniProt P27338); assay: MAO-B inhibition assay (Amplex Red, horseradish peroxidase-coupled); type: biochemical; conditions: for hMAO-B inhibition (IC50 hMAO-B) / inhibition at 10 µM: at 10 μM; for inhibition at 10 µM: read-out: hMAO-B inhibition (IC50 hMAO-B)
T2 construct: purchased Sigma M7441
T2 sequence (P27338 1-520): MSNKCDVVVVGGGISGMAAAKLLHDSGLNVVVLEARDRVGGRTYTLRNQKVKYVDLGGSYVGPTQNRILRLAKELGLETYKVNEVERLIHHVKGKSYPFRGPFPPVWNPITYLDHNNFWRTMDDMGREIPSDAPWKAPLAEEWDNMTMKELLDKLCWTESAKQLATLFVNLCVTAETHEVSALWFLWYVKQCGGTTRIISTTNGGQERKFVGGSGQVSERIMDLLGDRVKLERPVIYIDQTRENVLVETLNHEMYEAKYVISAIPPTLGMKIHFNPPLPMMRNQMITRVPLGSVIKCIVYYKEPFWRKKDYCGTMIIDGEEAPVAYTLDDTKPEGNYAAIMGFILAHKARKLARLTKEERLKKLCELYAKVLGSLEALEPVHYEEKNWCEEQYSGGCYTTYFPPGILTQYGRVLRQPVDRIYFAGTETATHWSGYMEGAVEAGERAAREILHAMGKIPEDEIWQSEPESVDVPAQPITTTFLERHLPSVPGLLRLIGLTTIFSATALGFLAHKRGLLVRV
Experimental: MAO-A (Sigma M7316) and MAO-B (Sigma M7441) inhibition assays were conducted in 96-well micro-plates according to the method described by Zhou et al. [Analytical Biochemistry 253, 169-174, 1997]. Both assays were performed in potassium phosphate buffer (0.1 M, pH 7.5) containing 0.5 mM tyramine (Sigma T2879), 0.12 mM N-acetyl-3,7-dihydrophenoxazine (Amplex Red, Invitrogen A12222), 1.2 unit/ml horseradish peroxidase (Sigma P2088), 0.6 unit/ml MAO-A or 2.5 unit/ml MAO-B, and various concentrations of test compounds (0.1 nM to 10 uM). Reactions were initiated by the addition of a pre-mixed solution of tyramine, horseradish peroxidase and Amplex Red, and were allowed to proceed at 37° C. for 30 min. Enzyme activities were determined by measuring absorbance at 570 nm (SpectralMax Plate reader), absorbance of oxidized Amplex Red generated by this horseradish peroxidase-coupled reaction. Nonspecifically formed products were determined in the presence of 2 and 10 µM clorgyline and deprenyl for MAO-A and MAO-B, respectively. IC50 values were determined by fitting concentration-inhibition data to sigmoidal dose-response curves with two-floating parameters: IC50 and Hill coefficient.

Compound	IC50 [1]	also measured
7-({5-[3-fluoro-5-(trifluoromethyl)phenyl](1,2,4-oxadiazol-3-yl)}ethoxy)-3-(4-hydroxyphenyl)chromen-4-one [PT-79]	48 nM	hMAO-B inhibition (IC50 hMAO-B) (hMAO-B): 18%
O=c1c(-c2ccc(O)cc2)coc2cc(OCc3noc(-c4ccc(F)cc4)n3)ccc12 [PT-11, 7-{[5-(4-fluorophenyl)(1,2,4-oxadiazol-3-yl)]methoxy}-3-(4-hydroxyphenyl)chromen-4-one]	16 nM and 20 nM	inhibition at 10 µM (hMAO-B): 35%
COC(=O)c1cccc(COc2ccc3c(=O)c(-c4ccc(O)cc4)coc3c2)c1 [PT-33, methyl 3-{[3-(4-hydroxyphenyl)-4-oxochromen-7-yloxy]methyl}benzoate]	150 nM	IC50 (hMAO-B): 300 nM
O=c1c(-c2ccc(O)cc2)coc2cc(OCc3cc(-c4cccc(C(F)(F)F)c4)on3)ccc12 [PT-45, 3-(4-hydroxyphenyl)-7-({5-[3-(trifluoromethyl)phenyl]isoxazol-3-yl}methoxy)chromen-4-one]	98 nM	hMAO-B inhibition (IC50 hMAO-B) (hMAO-B): 7%; inhibition at 10 µM (hMAO-B): 7%
CS(=O)(=O)Nc1ccc(-c2coc3cc(OCc4cnc(-c5ccc(C(F)(F)F)cc5)s4)ccc3c2=O)cc1 [PT-83, 3-{4-[(methylsulfonyl)amino]phenyl}-7-({2-[4-(trifluoromethyl)phenyl](1,3-thiazol-5-yl)}methoxy)chromen-4-one]	25 nM	
O=C(COc1ccc2c(=O)c(-c3ccc(O)cc3)coc2c1)c1ccccc1C(F)(F)F [PT-85, 3-(4-hydroxyphenyl)-7-{2-oxo-2-[2-(trifluoromethyl)phenyl]ethoxy}chromen-4-one]	70 nM	
O=c1c(-c2ccc3[nH]ncc3c2)coc2cc(OCc3noc(-c4cc(F)cc(C(F)(F)F)c4)n3)ccc12 [PT-86, 3-(1H-indazol-5-yl)-7-({5-[5-fluoro-3-(trifluoromethyl)phenyl](1,2,4-oxadiazol-3-yl)}methoxy)chromen-4-one]		inhibition at 1 µM ([1]; at 1 μM): 68%
O=c1c(-c2ccc(O)cc2)coc2cc(OCc3cc(-c4ccc(Cl)cc4)on3)ccc12 [PT-95, 7-{[5-(4-chlorophenyl)isoxazol-3-yl]methoxy}-3-(4-hydroxyphenyl)chromen-4-one]		hALDH2 inhibition (IC50 hALDH2 column) ([1]; at 1 μM): 57%; inhibition at 1 µM ([1]; at 1 μM): 57%
O=c1c(-c2ccc(O)cc2)coc2cc(OCc3cc(-c4ccc(Cl)c(Cl)c4)on3)ccc12 [PT-96, 7-{[5-(3,4-dichlorophenyl)isoxazol-3-yl]methoxy}-3-(4-hydroxyphenyl)chromen-4-one]		inhibition at 1 µM ([1]; at 1 μM): 47%
O=c1c(-c2ccc(O)cc2)coc2cc(OCc3nc(-c4cccnc4)no3)ccc12 [PT-114, 3-(4-hydroxyphenyl)-7-[(3-(3-pyridyl)(1,2,4-oxadiazol-5-yl))methoxy]chromen-4-one]	32 nM	
O=c1c(-c2ccc(O)cc2)coc2cc(OCc3nc(-c4cccc(C(F)(F)F)c4)no3)ccc12 [PT-115, 3-(4-hydroxyphenyl)-7-({3-[3-(trifluoromethyl)phenyl](1,2,4-oxadiazol-5-yl)}methoxy)chromen-4-one]	38 nM	
CNC(=O)c1coc(COc2ccc3c(=O)c(-c4ccc(O)cc4)coc3c2)n1 [PT-118, (2-{[3-(4-hydroxyphenyl)-4-oxochromen-7-yloxy]methyl}(1,3-oxazol-4-yl))-N-methylcarboxamide]	23 nM	
COc1ccc2c(COc3ccc4c(=O)c(-c5ccc(O)cc5)coc4c3)cc(=O)oc2c1 [PT-119, 4-{[3-(4-hydroxyphenyl)-4-oxochromen-7-yloxy]methyl}-7-methoxychromen-2-one]	68 nM	
CS(=O)(=O)Nc1ccc(-c2coc3cc(OCc4nnc(-c5ccc(F)cc5)o4)ccc3c2=O)cc1 [PT-120, 7-{[5-(4-fluorophenyl)(1,3,4-oxadiazol-2-yl)]methoxy}-3-{4-[(methylsulfonyl)amino]-phenyl}chromen-4-one]	276 nM	

Continued by falling IC50 [1], values first:

IC50 [1]	Compound	also measured
20 nM	O=c1c(-c2ccc(O)cc2)coc2cc(OCc3cncc(C(F)(F)F)c3)ccc12 [PT-94, 3-(4-hydroxyphenyl)-7-{[5-(trifluoromethyl)(3-pyridyl)]methoxy}chromen-4-one]	
18 nM	3-(4-hydroxyphenyl)-7-(2-{4-[3-(trifluoromethyl)phenyl]piperazinyl}ethoxy)chromen-4-one [PT-124]	hMAO-B inhibition (IC50 hMAO-B) (hMAO-B): 21%
17 nM	3-(4-hydroxyphenyl)-7-[(5-(3-pyridyl)(1,3,4-oxadiazol-2-yl))ethoxy]chromen-4-one [PT-113]	hMAO-B inhibition (IC50 hMAO-B) (hMAO-B): 30%
17 nM	O=c1c(-c2ccc(OCc3ccccn3)cc2)coc2cc(OCc3ccccn3)ccc12 [PT-93, 7-(2-pyridylmethoxy)-3-[4-(2-pyridylmethoxy)phenyl]chromen-4-one]	
16 nM	O=c1c(-c2ccc(O)cc2)coc2cc(OC[C@H](O)CNCc3cccc(C(F)(F)F)c3)ccc12 [PT-53, 7-[(2R)-2-hydroxy-3-({[3-(trifluoromethyl)phenyl]methyl}amino)propoxy]-3-(4-hydroxyphenyl)chromen-4-one]	hMAO-B inhibition (IC50 hMAO-B) (hMAO-B): 19%; inhibition at 10 µM (hMAO-B): 19%
16 nM	O=C(O)c1coc(COc2ccc3c(=O)c(-c4ccc(O)cc4)coc3c2)n1 [PT-102, 2-{[3-(4-hydroxyphenyl)-4-oxochromen-7-yloxy]methyl}-1,3-oxazole-4-carboxylic acid]	
12 nM	CCOC(=O)c1cnn(CCOc2ccc3c(=O)c(-c4ccc(O)cc4)coc3c2)c1 [PT-122, ethyl 1-{2-[3-(4-hydroxyphenyl)-4-oxochromen-7-yloxy]ethyl}pyrazole-4-carboxylate]	
11 nM	Nc1cccc(-c2nnc(COc3ccc4c(=O)c(-c5ccc(O)cc5)coc4c3)o2)c1 [PT-121, 7-{[5-(3-aminophenyl)(1,3,4-oxadiazol-2-yl)]methoxy}-3-(4-hydroxyphenyl)chromen-4-one]	
8 nM	O=c1c(-c2ccc(O)cc2)coc2cc(OC[C@H](O)CNCc3cc(F)cc(F)c3)ccc12 [PT-55, 7-((2R)-3-{[(3,5-difluorophenyl)methyl]amino}-2-hydroxypropoxy)-3-(4-hydroxyphenyl)chromen-4-one]	hMAO-B inhibition (IC50 hMAO-B) (hMAO-B): 14%; inhibition at 10 µM (hMAO-B): 14%
7 nM	O=c1c(-c2ccc(O)cc2)coc2cc(OCc3nnc(-c4cccnc4)o3)ccc12 [PT-110, 3-(4-hydroxyphenyl)-7-[(5-(3-pyridyl)(1,3,4-oxadiazol-2-yl))methoxy]chromen-4-one]	
5 nM	COC(=O)c1cnc(COc2ccc3c(=O)c(-c4ccc(O)cc4)coc3c2)o1 [PT-47, methyl 2-{[3-(4-hydroxyphenyl)-4-oxochromen-7-yloxy]methyl}-1,3-oxazole-5-carboxylate]	inhibition at 10 µM (hMAO-B): 34%
5 nM	O=c1c(-c2ccc(O)cc2)coc2cc(OCCNCc3cccc(C(F)(F)F)c3)ccc12 [PT-99, 3-(4-hydroxyphenyl)-7-[2-({[3-(trifluoromethyl)phenyl]methyl}amino)ethoxy]chromen-4-one]	
